From patent publication US7041785B1, “B1-bradykinin receptor antagonists and use thereof” (Université de Sherbrooke, priority 1996, dated 2006)
Non-standard residues stand in square brackets, D forms with d. Residues, ends and D or L forms follow the SMILES beside them. No end group written: not given here. d2Nal = N[C@H](Cc1ccc2ccccc2c1)C(=O)O

Columns and labels:
human B2 receptor = biological target: T1, human B2 receptor (Homo sapiens, UniProt P30411); assay: Human umbilical vein bioassay in presence of Lys(Leu8)desArg9BK, B2 receptor; assay type: cell-based; settings: vs BK, Lys(Leu8)desArg9BK 1 μmol/L present
T1 construct: Helical strips of HUV were prepared according to Gobeil et al; from tissue; host or cells: human umbilical vein helical strips
T1 sequence (P30411 1-391): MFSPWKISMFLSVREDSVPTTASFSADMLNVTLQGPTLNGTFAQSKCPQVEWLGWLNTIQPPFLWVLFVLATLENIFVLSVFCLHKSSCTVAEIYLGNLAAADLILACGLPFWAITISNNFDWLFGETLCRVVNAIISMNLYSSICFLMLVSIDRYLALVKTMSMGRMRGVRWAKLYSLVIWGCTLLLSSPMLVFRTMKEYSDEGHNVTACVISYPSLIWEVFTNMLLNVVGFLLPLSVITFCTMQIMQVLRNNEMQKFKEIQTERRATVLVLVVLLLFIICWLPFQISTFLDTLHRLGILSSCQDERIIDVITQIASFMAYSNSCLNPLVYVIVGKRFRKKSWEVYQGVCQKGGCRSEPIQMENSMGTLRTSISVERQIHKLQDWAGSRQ
Description: (§1) Tissues were taken from New Zealand white rabbits (1.5–2.5 kg) and Dunken Hartley guinea pigs (250–350 g) of either sex, killed by stunning and exsanguination. Umbilical cords were taken from healthy women 22–40 years old after spontaneous delivery at term. The rabbit jugular vein (RbJV), the guinea pig ileum (GPI), two preparations containing B2 receptors, the rabbit aorta (RbA) (B1 receptor) and the human umbilical vein (HUV), a mixed preparation containing both B1 and B2 receptors^10, were used. Helical strips of RbJV treated with 1 μmol/L of captopril to avoid peptide degradation by the angiotensin-converting enzyme (ACE), alias kininase II were prepared according to Gaudreau et al.^11 Helical strips of RbA devoid of endothelium were prepared according to Furchgott and Bhadrakom^12. Longitudinal segments of GPI were prepared with the procedure described by Rang^13. Helical strips of HUV were prepared according to Gobeil et al.^10. The tissues were suspended in 10-ml organ baths containing warm (37EC), oxygenated (95% O2–5% CO2) Krebs solution of the following composition in mmol/L; NaCl: 118.1; KCl: 4.7; CaCl26H2O: 2.5; KH2PO4: 1.2; MgSO47H2O: 1.18; NaHCO3: 25.0 and D-Glucose: 5.5. The RbA and the HUV were stretched with an initial tension of 2 g, whereas the RbJV and the GPI were loaded with 0.5 g. Changes of tension produced by the various agents were measured with Grass isometric transducers (model FT 03C, Grass Instrument Co., Quincy, Mass.). […] Before testing the drugs, the tissues were allowed to equilibrate for 60–120 min during which time the tissues were repeatedly washed and the tension readjusted every 15 min.
(§2) At the beginning of each experiment, a submaximal dose of bradykinin (BK) (9 nmol/L), was applied repeatedly on the RbJV, the GPI or the HUV to ensure that tissues responded with stable contractions. […] A similar protocol was used for the HUV.
(§3) Repeated applications of a singl and double concentration of BK (on RbJV, GPI and HUV) and of desArg^9BK (RbA and HUV) were made in the absence and in presence of the various peptides to evaluate their apparent affinities as antagonists, in terms of pA2 (-log10 of the molar concentration of antagonist that reduces the effect of a double concentration of agonist to that of a single one)^14. The antagonists were applied 10 min before measuring the myotropic effects of either BK (the B2 receptor agonist) or desArg^9BK (the B1 receptor agonist). […] All kinin antagonists were initially applied to tissues at concentration of 10 μg/mL to measure their potential agonistic activities (α^E) in comparison with BK (in the B2 receptor preparations) or desArg^9BK (in the B1 receptor preparations).

B2 receptor [1] = biological target: T2, B2 receptor (Oryctolagus cuniculus, UniProt Q28642); settings: vs BK; captopril 1 μmol/L; Inactive = no detectable antagonistic effect at ≦ 10 μg/ml
T2 sequence (Q28642 1-367): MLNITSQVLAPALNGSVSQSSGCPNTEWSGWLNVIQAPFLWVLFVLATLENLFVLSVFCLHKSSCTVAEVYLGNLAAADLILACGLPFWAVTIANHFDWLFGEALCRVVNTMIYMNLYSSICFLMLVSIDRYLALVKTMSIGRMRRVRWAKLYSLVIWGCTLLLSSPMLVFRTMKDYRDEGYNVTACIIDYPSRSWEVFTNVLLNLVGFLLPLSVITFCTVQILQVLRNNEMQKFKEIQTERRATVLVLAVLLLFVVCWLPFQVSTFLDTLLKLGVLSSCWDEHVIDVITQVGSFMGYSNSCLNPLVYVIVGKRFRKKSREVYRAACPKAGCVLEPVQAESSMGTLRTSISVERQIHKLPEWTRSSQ

B1 receptor = biological target: T3, B1 receptor (Oryctolagus cuniculus, UniProt P48748); assay: cell-based; settings: for Rb.A. α^E: residual agonistic activity at 10 μg/mL in comparison with desArg9BK
T3 sequence (P48748 1-352): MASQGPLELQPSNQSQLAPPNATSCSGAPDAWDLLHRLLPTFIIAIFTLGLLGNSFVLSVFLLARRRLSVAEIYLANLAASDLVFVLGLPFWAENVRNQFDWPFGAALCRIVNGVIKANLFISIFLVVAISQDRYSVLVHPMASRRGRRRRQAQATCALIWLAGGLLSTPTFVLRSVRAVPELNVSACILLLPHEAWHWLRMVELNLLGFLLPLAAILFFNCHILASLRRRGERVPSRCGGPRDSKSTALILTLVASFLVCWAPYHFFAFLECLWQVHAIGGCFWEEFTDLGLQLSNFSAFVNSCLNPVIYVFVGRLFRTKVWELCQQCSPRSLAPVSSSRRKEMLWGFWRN
Description: as §1, §2, §3

B2 receptor [2] = biological target: T2, B2 receptor; assay: cell-based; settings: residual agonistic activity at 10 μg/mL in comparison with BK
Description: as §1, §2, §3

human B1 receptor = biological target: T4, human B1 receptor (Homo sapiens, UniProt P46663); assay: cell-based; settings: for Human umbilical vein B1 receptor α^E: residual agonistic activity at 10 μg/mL
T4 sequence (P46663 1-353): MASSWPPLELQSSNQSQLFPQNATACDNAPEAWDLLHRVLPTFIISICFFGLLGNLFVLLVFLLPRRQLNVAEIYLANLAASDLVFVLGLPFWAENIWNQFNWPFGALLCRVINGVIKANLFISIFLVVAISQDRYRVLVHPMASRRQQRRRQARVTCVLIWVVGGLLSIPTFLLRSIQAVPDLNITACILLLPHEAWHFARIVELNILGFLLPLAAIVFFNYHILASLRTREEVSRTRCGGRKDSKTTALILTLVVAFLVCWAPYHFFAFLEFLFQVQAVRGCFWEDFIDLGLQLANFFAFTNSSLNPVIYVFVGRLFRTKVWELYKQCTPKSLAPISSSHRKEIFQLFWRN
Description: as §1, §2, §3

B2 receptor [3] = biological target: T5, B2 receptor (Cavia porcellus, UniProt O70526); assay: cell-based
T5 sequence (O70526 1-372): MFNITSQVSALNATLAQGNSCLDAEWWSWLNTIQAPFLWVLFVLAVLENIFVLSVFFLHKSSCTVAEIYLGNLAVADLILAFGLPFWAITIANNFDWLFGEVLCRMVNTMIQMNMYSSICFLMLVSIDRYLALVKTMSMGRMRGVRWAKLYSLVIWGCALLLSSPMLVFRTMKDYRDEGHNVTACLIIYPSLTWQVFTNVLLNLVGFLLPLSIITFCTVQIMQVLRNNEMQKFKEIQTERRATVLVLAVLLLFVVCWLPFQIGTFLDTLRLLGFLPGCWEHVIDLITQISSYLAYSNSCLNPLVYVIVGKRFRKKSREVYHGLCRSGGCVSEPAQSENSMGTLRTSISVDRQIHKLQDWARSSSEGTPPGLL
Description: as §1, §2, §3

[4] = biological target: T6, angiotensin-converting enzyme (ACE) from rabbit lungs (Oryctolagus cuniculus, UniProt P12822); settings: after 30 min, same conditions and enzymatic dilution; cited from earlier work
T6 sequence (P12822 34-1310): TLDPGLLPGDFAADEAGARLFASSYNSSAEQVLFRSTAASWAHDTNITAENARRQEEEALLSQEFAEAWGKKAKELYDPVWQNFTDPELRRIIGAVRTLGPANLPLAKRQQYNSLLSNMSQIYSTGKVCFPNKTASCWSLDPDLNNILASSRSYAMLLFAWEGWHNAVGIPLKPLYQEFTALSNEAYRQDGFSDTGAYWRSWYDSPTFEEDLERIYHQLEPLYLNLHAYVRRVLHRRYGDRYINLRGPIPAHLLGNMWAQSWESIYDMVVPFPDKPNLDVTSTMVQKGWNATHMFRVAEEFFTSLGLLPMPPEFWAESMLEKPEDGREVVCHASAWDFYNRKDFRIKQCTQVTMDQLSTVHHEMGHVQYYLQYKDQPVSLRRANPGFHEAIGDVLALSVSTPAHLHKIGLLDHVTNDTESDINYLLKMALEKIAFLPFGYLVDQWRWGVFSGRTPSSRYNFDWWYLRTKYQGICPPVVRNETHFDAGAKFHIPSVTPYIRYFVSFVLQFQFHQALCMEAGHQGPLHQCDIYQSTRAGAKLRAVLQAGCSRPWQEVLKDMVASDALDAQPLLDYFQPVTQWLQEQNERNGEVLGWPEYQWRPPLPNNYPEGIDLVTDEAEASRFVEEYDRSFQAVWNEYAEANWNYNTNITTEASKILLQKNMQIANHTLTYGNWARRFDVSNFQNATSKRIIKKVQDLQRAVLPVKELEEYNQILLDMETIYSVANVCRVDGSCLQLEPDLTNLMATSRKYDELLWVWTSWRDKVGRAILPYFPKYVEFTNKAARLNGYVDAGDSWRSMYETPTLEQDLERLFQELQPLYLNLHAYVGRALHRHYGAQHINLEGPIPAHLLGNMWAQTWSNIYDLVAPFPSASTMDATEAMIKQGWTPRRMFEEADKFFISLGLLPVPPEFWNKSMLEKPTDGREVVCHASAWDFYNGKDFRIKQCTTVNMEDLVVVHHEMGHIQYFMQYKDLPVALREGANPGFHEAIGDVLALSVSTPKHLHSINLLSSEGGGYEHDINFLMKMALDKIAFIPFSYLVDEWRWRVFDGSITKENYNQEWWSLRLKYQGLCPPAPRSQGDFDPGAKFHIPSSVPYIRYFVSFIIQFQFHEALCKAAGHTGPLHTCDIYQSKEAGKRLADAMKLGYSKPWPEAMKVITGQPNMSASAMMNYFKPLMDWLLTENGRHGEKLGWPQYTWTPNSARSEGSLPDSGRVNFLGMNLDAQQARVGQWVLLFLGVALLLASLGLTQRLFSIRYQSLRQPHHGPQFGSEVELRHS

Compound	Human umbilical vein B2 receptor pA2 (human B2 receptor)	Rb.J.V. pA2 (B2 receptor [1])	Rb.A. α^E (B1 receptor)	Rb.J.V. α^E (B2 receptor [2])	Human umbilical vein B1 receptor α^E (human B1 receptor)	G.P.I. pA2 (B2 receptor [3]; vs BK, Inactive = no detectable antagonistic effect at ≦ 10 μg/ml, F.ag. full agonist, P.ag. partial agonist)	Rb.A. pA2 (B1 receptor; apparent affinity as antagonist vs desArg9BK, antagonist applied 10 min before, Inactive = no detectable antagonistic effect at ≦ 10 μg/ml)	Human umbilical vein B1 receptor pA2 (human B1 receptor; vs desArg9BK, HOE140 400 nmol/L present)	G.P.I. α^E (B2 receptor [3]; residual agonistic activity at 10 μg/mL in comparison with BK)	Metabolism of naturally-occurring kinins by ACE [4]
CC[C@H](C)[C@H](NC(=O)[C@@H](Cc1ccc2ccccc2c1)NC(=O)[C@H](CO)NC(=O)[C@H](Cc1ccccc1)NC(=O)CNC(=O)[C@@H]1CCCN1C(=O)[C@@H]1CCCN1C(=O)[C@H](CCCNC(=N)N)NC(=O)[C@H](CCCCN)NC(C)=O)C(=O)O [Compound 19, AcLys(D-βNal^7, Ile^8)desArg^9BK] (Ac-KRPPGFS[d2Nal]I-OH; C-terminus assumed)	Inactive	Inactive	0	0.09	0	P.ag.	–	–	–	–
D-Arg(Hyp^3, D-Hyp^7(trans thiophenyl), Oic^8)desArg^9BK [Compound 34, reference compound]	5.12 ± 0.20	7.52 ± 0.05	0	0	0	–	8.27 ± 0.14	8.55 ± 0.09	0	–
RPPGFSPFR [BK]	–	–	–	–	–	–	–	–	–	fully metabolised
